Experimental data taken from patent publication US8703811B2, “Small molecule inhibitors of Plasmodium falciparum dihydroorotate dehydrogenase” (Genzyme Corporation, priority 2008, dated 2014).
≈ marks a conversion by molar mass, not a printed value. Like-named read-outs stand apart in the source and are kept apart here.

What was measured:
P. falciparum D10 = assay: Inhibition of in vitro P. falciparum culture, [3H]-hypoxanthine uptake, D10; format: cell-based; conditions: Plasmodium falciparum, D10, Erythrocyte; [3H]-hypoxanthine uptake by parasite infected erythrocytes; read-out: D10 IC50
Experimental: (§1) P. falciparum strains D10, 3D7, HB3, and Dd2 were obtained from the Malaria Research and Reference Reagent Resource Center (Manassas, Va.). The parasite strains were maintained in vitro by method of Trager and Jensen. The inhibition of P. falciparum growth in the presence of drug was assessed by the relative reduction of [^3H]-hypoxanthine uptake as previously described. Inhibition data were fitted to Equation 1 using non-linear regression analysis except that the relative velocity of parasite growth was substituted for the rate of product formation.

[1] = Normal Human Dermal Fibroblast Toxicity Screen; format: cell-based; conditions: human, normal human dermal fibroblasts; four days exposure, Alamar Blue; read-out: Dermal Fibroblast LC50
Experimental: The Normal Human Dermal Fibroblast Toxicity Screen Protocol is designed to determine whether compound mixtures, breakouts or single compounds are toxic to normal human dermal fibroblasts. The screen involves plating the dermal fibroblasts and then exposing them to the compounds for four days, then cell viability is measured using Alamar Blue reagent.
Harvested Dermal Fibroblast cells were diluted in Growth Media to 0.25 to 0.3×10^5 cells/mL. […] NOTE: One plate, the T=0 plate required that 20-30 wells be seeded and all the other plates had 96 wells seeded. Plates were incubated in 37° C./5% CO2 incubator for 24 hours.
Alamar Blue solution (25 μL/well) was added to the T=0 plate and the plate was agitated. The plate in 37° C./5% CO2 incubator was incubated for 3 hours, agitated the and the fluorescence was measured. 10% Tween 20 stock (10 μL) was added into rows A-D in column 1 (positive control). DMSO (0.5 μL) was added into column 2 (negative control). Compounds were placed into designated wells for desired testing as follows:
Plates were mixed on the shaker, then incubated in 37° C./5% CO2 incubator for 96 hours.
Alamar Blue solution (25 μL/well) was added to the plates containing the compounds, and the plates were agitated. The plates were incubated in 37° C./5% CO2 incubator for 3 hours, agitated and then the fluorescence was measured.

pfDHODH [2] = biological target: T1, pfDHODH (Plasmodium falciparum (isolate 3D7), UniProt Q08210); assay: pfDHODH activity with FeCy as electron acceptor; conditions: read-out: % Inhibition of Product Formation Rate with 50 μM Inhibitor, FeCy
Experimental: Inhibitors of DHODH, as classified by the chromogen reduction assay, were also evaluated for activity using FeCy as an electron acceptor. A final concentration of 5-50 nM DHODH, 200 μM L-DHO and 100 μM FeCy in Buffer C was used in this assay. Both the reduction of FeCy and the formation of orotate was monitored at 420 nm (ε420=1 mM^−1 cm^−1) and 290 nm (ε280=2 mM^−1 cm^−1), respectively, noting that two molecules of FeCy are reduced for one molecule of L-DHO. As with the previous assays, the reaction was performed at 25° C. and initiated with the addition of enzyme.

P. falciparum HB3 = assay: Inhibition of in vitro P. falciparum culture, [3H]-hypoxanthine uptake, HB3; format: cell-based; conditions: Plasmodium falciparum, HB3, Erythrocyte; [3H]-hypoxanthine uptake by parasite infected erythrocytes; read-out: HB3 IC50
Experimental: as §1

[3] = system: P. falciparum D10-scDHODH; assay: Inhibition of transgenic D10-scDHODH parasites, [3H]-hypoxanthine uptake; format: cell-based; conditions: Plasmodium falciparum, D10, read-out: D10-scDHODH IC50
Experimental: as §1
Transgenic parasites expressing scDHODH were generated as described by Painter et al. except that full length scDHODH was cloned directly into the pGem3Z vector without a GFP tag. The resultant plasmid was transfected into ring stages of P. falciparum D10 by electroporation and maintained in culture using standard methods under the selection of WR99210.

[4] = Renal Proximal Tubule Epithelial Cell Toxicity Screen; format: cell-based
Experimental: The Renal Proximal Tubule Epithelial Cell Toxicity Screen is designed to determine whether compound mixtures, breakouts or single compounds are toxic to normal renal epithelial cells. […] Basically, the screen consists of plating renal epithelial cells, exposing them to the desired compound(s) for 4 days and measuring cell viability using the Alamar Blue reagent.
Harvested Kidney Epithelial cells were diluted in REGM to 1.5×10^4 cells/mL. […] NOTE: One plate, the T=0 plate required that 20-30 wells be seeded, and all the other plates had 96 wells seeded. Plates were incubated in 37° C./5% CO2 incubator for 24 hours.
Alamar Blue solution (25 μL/well) was added to the T=0 plate and mixed. The plate was incubated in 37° C./5% CO2 incubator for 4 hours, mixed and then the fluorescence was measured. 10% Tween 20 stock (10 μL) was added into rows A-D in column 1 (positive control). DMSO (0.5 μL) was added into column 2 (negative control). Compounds were placed into designated wells for desired testing as follows:
Plates were mixed on the shaker, and then incubated in 37° C./5% CO2 incubator for 96 hours. Day 6:
Alamar Blue solution (25 μL/well) was added to the plates containing the compounds and mixed. Plates were incubated in 37° C./5% CO2 incubator for 4 hours, mixed and the fluorescence was measured.

P. falciparum 3D7 = assay: Inhibition of in vitro P. falciparum culture, [3H]-hypoxanthine uptake, 3D7; format: cell-based; conditions: Plasmodium falciparum; for IC50: read-out: 3D7 IC50
Outline: (§2)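 Parasite growth inhibition measured as relative reduction of [3H]-hypoxanthine uptake in in vitro cultures. Values from non-linear regression fit, using relative growth velocity in place of product-formation rate.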

P. falciparum Dd2 = assay: Inhibition of in vitro P. falciparum culture, [3H]-hypoxanthine uptake, Dd2; format: cell-based; conditions: Plasmodium falciparum; for IC50: read-out: Dd2 IC50
Outline: as §2

pfDHODH [5] = biological target: T1, pfDHODH; assay: DHODH chromogen reduction (DCIP) assay, pfDHODH; format: biochemical, P. falciparum; conditions: for inhibition at 50 µM: 50 μM inhibitor, 100 μM CoQD, 60 μM DCIP, read-out: % Inhibition of Product Formation Rate with 50 μM Inhibitor, CoQD
Cytochrome P450 2D6 = Cytochrome P450 2D6 (Homo sapiens (Human), UniProt P10635); assay: Cytochrome P450 inhibition, 2D6; format: in vitro ADME
From the text: (§3) Rapid screening for cytochrome P450 inhibitors is part of the current paradigm for avoiding development of drugs likely to give clinical pharmacokinetic drug-drug interactions and associated toxicities. There are commercially available assays for such screenings. For example, BD Biosciences (http://www.bdbiosciences.com/index.shtml) provides a technical bulletin describing a detailed, step-by-step procedure for the performance of the high throughput cytochrome P450 inhibition testing method.

Cytochrome P450 1A2 = Cytochrome P450 1A2 (Homo sapiens (Human), UniProt P05177); format: in vitro ADME
From the text: as §3

Cytochrome P450 3A4 = Cytochrome P450 3A4 (Homo sapiens (Human), UniProt P08684); assay: Cytochrome P450 inhibition, 3A4; format: in vitro ADME
From the text: as §3

Solubility measurement = format: physicochemical; conditions: aqueous buffer, thermodynamic from solid; read-out: Solubility
From the text: Many standard techniques are known in the art to establish the solubility of a compound in a particular solvent. The following description is one such technique that could be used to determine the solubility: Equilibrium solubility measurements start with the solid form of the compound (crystalline form preferred). The powder is physically mixed with an aqueous buffer (defined pH) until equilibrium is reached. Either centrifugation or filtration can be used to separate the solution from the remaining solid. The amount dissolved in the solution can be determined by any one of many known methods including HPLC or UV/Vis spectroscopic techniques.

Cytochrome P450 2C19 = Cytochrome P450 2C19 (Homo sapiens (Human), UniProt P33261); assay: Cytochrome P450 inhibition, 2C19; format: in vitro ADME
From the text: as §3

Hepatic clearance, rat = format: in vitro ADME
From the text: (§4) Clearance of drug by the liver will depend on the rate of delivery of drug to the liver (the hepatic blood flow) and on the efficiency of removal of drug which is presented to it (the extraction ratio). The hepatic clearance of compounds can be determined by standard methods known in the art. Such methods are described in, for example, Naritomi, Y; Terashita, S; Kagayama, A; Sugiyama, Y. “Utility of Hepatocytes in Predicting Drug Metabolism: Comparison of Hepatic Intrinsic Clearance in Rats and Humans in Vivo and in Vitro.” 2003, 31 (5): pages 580-588.

Hepatic clearance, human = format: in vitro ADME
From the text: as §4

Cytochrome P450 2C9 = Cytochrome P450 2C9 (Homo sapiens (Human), UniProt P11712); assay: Cytochrome P450 inhibition, 2C9; format: in vitro ADME
From the text: as §3

Permeability = format: in vitro ADME; conditions: Caco-2
Experimental: Permeability assays using the Caco-2 colon carcinoma cell line are being used throughout the pharmaceutical industry to estimate the ability of potential drug compounds to cross the intestinal epithelium. Caco-2 cell permeability studies are performed using Caco-2 cell monolayers grown on microporous membranes in multiwell insert systems. With the inserts suspended in the wells of multiwell plates, test compounds can be added to either the upper (apical) or lower (basolateral) chamber to measure permeability in the absorptive (apical to basolateral) or secretive (basolateral to apical) directions. Samples are then taken from the opposite chamber at various time intervals to measure the amount of test compound that has crossed the cell monolayer. A representative method to generate permeability data similar to that in Table 3 can be found in Alsenz, J; Haenel, E. “Development of a 7-Day, 96-Well Caco-2 Permeability Assay with High-Throughput Direct UV Compound Analysis.” Pharmaceutical Research 2003 20(12): p 1961-1969.
Parallel artificial membrane permeability assay (PAMPA) utilizes a simple phospholipid-coated filter disc to measure membrane permeability. It was developed as an alternative to the low throughput. Caco-2 cell permeability assay used to correlate passive permeability with in vivo oral absorption. A representative publication disclosing this method is Kerns, E H; Di, L; Petusky, S; Farris, M; Ley, R; Jupp, P. “Combined application of parallel artificial membrane permeability assay and Caco-2 permeability assays in drug discovery.” J. Pharma Sci. 2004, 93 (6), pages 1440-53.
Cell culture methods (e.g. Caco-2, HT-29 and MDC) and physicochemical methods such as PAMPA and immobilized artificial membrane (IAM) columns are known in the art and can be used to obtain data such as that in Table 3. Hidalgo, I J; “Assessing the absorption of new pharmaceuticals.” Curr Top Med. Chem. 2001 November; 1(5): p 385-401.

Log D measurement = format: physicochemical; conditions: octanol/water; read-out: LogD
From the text: Many standard techniques are known in the art to establish the distribution coefficient of a compound between two particular solvents. The following description is one such technique that could be used to determine the distribution coefficient: The shake-flask method, which consists of dissolving some of the compound in a volume of octanol and water, then physically shaking the mixture and allowing the two solvents to fully separate. The concentration of the compound in each solvent is then measured. The most common method of measuring the distribution of the solute is by HPLC or UV/Vis spectroscopic techniques.

[6] = 3D7, Erythrocyte, [3H]-hypoxanthine uptake by parasite infected erythrocytes
[7] = DD2, Erythrocyte, [3H]-hypoxanthine uptake by parasite infected erythrocytes
[8] = pfDHODH IC50, DCIP assay, 200 μM L-DHO, 18 μM CoQD, 100 μM DCIP, 20 nM enzyme

T1 sequence (Q08210 159-565 limits assumed): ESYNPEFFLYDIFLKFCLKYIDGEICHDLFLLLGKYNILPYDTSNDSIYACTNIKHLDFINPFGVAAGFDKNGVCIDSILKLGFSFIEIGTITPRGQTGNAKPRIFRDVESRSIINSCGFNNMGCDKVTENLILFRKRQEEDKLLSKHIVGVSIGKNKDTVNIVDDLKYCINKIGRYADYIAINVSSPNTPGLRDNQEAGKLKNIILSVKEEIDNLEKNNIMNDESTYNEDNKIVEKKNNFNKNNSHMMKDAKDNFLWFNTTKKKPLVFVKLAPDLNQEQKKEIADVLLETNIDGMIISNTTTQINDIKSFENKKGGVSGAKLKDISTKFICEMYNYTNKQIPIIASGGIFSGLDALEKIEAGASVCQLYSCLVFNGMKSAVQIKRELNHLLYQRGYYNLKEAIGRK
Sequence of Cytochrome P450 2C19 (P33261 whole entry): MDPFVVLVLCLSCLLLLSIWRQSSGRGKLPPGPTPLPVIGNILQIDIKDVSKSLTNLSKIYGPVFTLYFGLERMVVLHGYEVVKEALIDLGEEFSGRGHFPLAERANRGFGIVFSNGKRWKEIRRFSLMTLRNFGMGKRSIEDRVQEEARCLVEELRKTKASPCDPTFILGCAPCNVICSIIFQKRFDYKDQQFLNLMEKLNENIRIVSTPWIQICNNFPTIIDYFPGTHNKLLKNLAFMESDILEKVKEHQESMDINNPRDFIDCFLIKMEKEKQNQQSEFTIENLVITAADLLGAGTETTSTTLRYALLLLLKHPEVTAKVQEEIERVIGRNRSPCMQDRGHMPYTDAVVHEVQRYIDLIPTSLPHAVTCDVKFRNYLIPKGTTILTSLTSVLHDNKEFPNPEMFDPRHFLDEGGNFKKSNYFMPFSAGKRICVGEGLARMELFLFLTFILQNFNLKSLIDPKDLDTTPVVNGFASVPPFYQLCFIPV
Sequence of Cytochrome P450 2D6 (P10635 whole entry): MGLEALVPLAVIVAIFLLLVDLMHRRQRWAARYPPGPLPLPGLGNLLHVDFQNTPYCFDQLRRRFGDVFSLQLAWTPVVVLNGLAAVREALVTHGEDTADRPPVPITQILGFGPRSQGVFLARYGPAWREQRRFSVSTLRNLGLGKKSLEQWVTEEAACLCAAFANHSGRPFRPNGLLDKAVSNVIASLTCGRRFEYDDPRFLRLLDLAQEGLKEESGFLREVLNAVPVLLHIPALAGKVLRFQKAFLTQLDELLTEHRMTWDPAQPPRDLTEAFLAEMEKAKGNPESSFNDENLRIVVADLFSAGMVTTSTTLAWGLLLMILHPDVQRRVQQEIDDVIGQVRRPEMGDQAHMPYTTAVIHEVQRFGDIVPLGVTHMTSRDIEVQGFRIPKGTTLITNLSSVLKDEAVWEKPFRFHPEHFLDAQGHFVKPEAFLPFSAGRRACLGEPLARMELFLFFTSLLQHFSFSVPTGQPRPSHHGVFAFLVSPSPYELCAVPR
Sequence of Cytochrome P450 2C9 (P11712 whole entry): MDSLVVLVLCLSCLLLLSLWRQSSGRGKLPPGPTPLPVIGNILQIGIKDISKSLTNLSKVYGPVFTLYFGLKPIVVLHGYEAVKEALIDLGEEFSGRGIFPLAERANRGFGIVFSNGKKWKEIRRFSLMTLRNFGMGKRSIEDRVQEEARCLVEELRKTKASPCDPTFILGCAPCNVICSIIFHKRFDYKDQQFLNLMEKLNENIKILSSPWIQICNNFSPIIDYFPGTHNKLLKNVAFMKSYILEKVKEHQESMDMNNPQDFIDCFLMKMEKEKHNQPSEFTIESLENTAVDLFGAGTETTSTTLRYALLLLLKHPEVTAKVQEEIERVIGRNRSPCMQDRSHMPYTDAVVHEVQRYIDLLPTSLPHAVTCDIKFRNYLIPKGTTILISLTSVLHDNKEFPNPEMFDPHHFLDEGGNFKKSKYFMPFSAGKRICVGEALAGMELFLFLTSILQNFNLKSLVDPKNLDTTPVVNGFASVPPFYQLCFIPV
Sequence of Cytochrome P450 3A4 (P08684 whole entry): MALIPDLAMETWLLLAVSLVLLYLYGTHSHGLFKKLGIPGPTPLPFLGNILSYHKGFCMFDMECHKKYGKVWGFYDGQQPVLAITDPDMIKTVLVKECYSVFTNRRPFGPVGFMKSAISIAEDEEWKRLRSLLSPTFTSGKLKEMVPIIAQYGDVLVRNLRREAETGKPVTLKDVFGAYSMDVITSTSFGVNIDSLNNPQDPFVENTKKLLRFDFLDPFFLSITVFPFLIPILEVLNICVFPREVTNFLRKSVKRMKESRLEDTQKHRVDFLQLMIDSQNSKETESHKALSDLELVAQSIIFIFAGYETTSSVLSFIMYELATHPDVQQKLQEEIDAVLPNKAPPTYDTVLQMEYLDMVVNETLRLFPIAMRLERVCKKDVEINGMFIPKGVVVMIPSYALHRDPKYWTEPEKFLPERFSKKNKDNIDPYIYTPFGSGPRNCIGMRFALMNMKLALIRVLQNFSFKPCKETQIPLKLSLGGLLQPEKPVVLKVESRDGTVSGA
Sequence of Cytochrome P450 1A2 (P05177 whole entry): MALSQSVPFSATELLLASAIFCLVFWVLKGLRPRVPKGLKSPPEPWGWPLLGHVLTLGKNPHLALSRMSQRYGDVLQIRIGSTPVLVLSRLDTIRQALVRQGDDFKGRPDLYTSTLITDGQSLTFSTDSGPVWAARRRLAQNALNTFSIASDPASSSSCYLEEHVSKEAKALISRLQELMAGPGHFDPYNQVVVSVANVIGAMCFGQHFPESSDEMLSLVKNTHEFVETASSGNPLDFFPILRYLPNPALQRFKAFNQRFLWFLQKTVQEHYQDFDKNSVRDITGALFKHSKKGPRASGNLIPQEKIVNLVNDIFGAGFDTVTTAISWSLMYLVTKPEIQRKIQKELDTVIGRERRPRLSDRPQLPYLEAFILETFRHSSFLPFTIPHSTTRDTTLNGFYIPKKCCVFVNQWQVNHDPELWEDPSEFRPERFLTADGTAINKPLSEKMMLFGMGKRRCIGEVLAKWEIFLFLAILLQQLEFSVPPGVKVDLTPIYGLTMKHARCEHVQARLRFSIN

Structure (SMILES)	IC50 (P. falciparum D10)	CC50 at 96 h [1]	inhibition at 50 µM (pfDHODH [2])	IC50 (P. falciparum HB3)	IC50 [3]	CC50 at 96 h [4]	IC50 (P. falciparum 3D7; [6])	IC50 (P. falciparum Dd2; [7])	inhibition at 50 µM (pfDHODH [5]; 200 μM L-DHO)	IC50 (pfDHODH [5]; [8])	further results
CCOC(=O)c1[nH]c(C)c(Cc2ccc(OCC)cc2)c1C [Compound 6]	1200 nM	> 62000 nM	4.8%	690 nM	> 10000 nM	> 62000 nM	770 nM	440 nM	102%	–	–
CCCCCC1CCCc2c1nc1ccccc1c2O (stereo not shown) [Compound 3]	370 nM	> 62000 nM	17%	270 nM	> 10000 nM	> 62000 nM	320 nM	230 nM	100%	340 ± 100 nM	–
CCCNC(=O)c1ccc(N2CCN(C)CC2)s1 [Compound 10, 5-(4-methylpiperazin-1-yl)-N-propylthiophene-2-carboxamide]	–	–	–	–	–	–	–	–	–	–	Cytochrome P450 Inhibition, 2D6 (Cytochrome P450 2D6): >5.0 in 2D6 μM; Cytochrome P450 Inhibition, 1A2 (Cytochrome P450 1A2): >5.0 in 1A2 μM; Cytochrome P450 Inhibition, 3A4 (Cytochrome P450 3A4): >5.0 in 3A4 μM; solubility (Solubility measurement): 24 µg/mL (≈ 89.8 µM); Cytochrome P450 Inhibition, 2C19 (Cytochrome P450 2C19): >5.0 in 2C19 μM; EC50 (P. falciparum 3D7; 3D7, Table 2b, read-out: 3D7 EC50): > 10000 nM; IC50 (P. falciparum 3D7; 3D7, Table 3, [3H]-hypoxanthine uptake): > 10000 nM; EC50 (P. falciparum Dd2; DD2, Table 2b, read-out: Dd2 EC50): > 10000 nM; IC50 (P. falciparum Dd2; DD2, Table 3, [3H]-hypoxanthine uptake): > 10000 nM; microsomal CLint (Hepatic clearance, rat): 16 µL/min/mg; IC50 (pfDHODH [5]; Table 2b, read-out: pfDHODH IC50): > 250000 nM; IC50 (pfDHODH [5]; Table 3, DCIP assay, 20 nM pfDHODH, read-out: pfDHODH IC50): > 30000 nM; microsomal CLint (Hepatic clearance, human): 8 µL/min/mg; Cytochrome P450 Inhibition, 2C9 (Cytochrome P450 2C9): >5.0 in 2C9 μM; Papp (Permeability): 11 ×10⁻⁶ cm/s; logD (Log D measurement): 1.5
Cc1ccccc1/C=C/c1cc(O)c2ccccc2n1 [Compound 2]	300 nM	> 62000 nM	1.2%	240 nM	8800 nM	> 62000 nM	320 nM	250 nM	94%	930 ± 100 nM	–
Fc1cc(I)ccc1Nc1ccnc2cc(Cl)ccc12 [Compound 4]	1000 nM	64000 nM	7.7%	2200 nM	980 nM	49000 nM	1800 nM	2300 nM	97%	580 ± 100 nM	–
